Source: PubChem BioAssay (NCI)
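Tested at 5 concentrations; 48 h exposure; 96-well plates; endpoints linearly interpolated, else capped at highest concentration. The concentration for 50% growth inhibition is given as GI50. The concentration for full growth arrest is given as TGI.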

Assays:
Assay in all cases: inhibition of tumour cell growth, NCI panel, 48 h
[1] = tested on: A498 renal
[2] = tested on: HT29 colon
[3] = tested on: IGROV1 ovarian
[4] = tested on: LOX IMVI melanoma
[5] = tested on: MALME-3M melanoma
[6] = tested on: NCI-H23 lung
[7] = tested on: SF-268 CNS
[8] = tested on: SK-MEL-5 melanoma
[9] = tested on: SNB-19 CNS
[10] = tested on: T-47D breast

| Compound | GI50 [1] [µM] | TGI [1] [µM] | GI50 [2] [µM] | TGI [2] [µM] | GI50 [3] [µM] | TGI [3] [µM] | GI50 [4] [µM] | TGI [4] [µM] | GI50 [5] [µM] | TGI [5] [µM] | GI50 [6] [µM] | TGI [6] [µM] | GI50 [7] [µM] | TGI [7] [µM] | GI50 [8] [µM] | TGI [8] [µM] | GI50 [9] [µM] | TGI [9] [µM] | GI50 [10] [µM] | TGI [10] [µM] |
| --- | --- | --- | --- | --- | --- | --- | --- | --- | --- | --- | --- | --- | --- | --- | --- | --- | --- | --- | --- | --- |
| Nc1c(C(=O)c2cccc(-c3ccc[n+]([O-])c3)c2)cnn1-c1ccc(F)cc1F | > 25 | > 25 | > 25 | > 25 | > 25 | > 25 | > 25 | > 25 | > 25 | > 25 | > 25 | > 25 | > 25 | > 25 | > 25 | > 25 | > 25 | > 25 | > 25 | > 25 |
| O=c1[nH]cnc2c1nnn2C1OC(CO)C(O)C1O (stereo not given) | 5 | > 100 | 2.15 | > 100 | 1.27 | > 57.7 | 0.779 | > 100 | 2.64 | > 59 | 4.25 | > 100 | 6.81 | > 100 | 5.59 | 30.3 | 19.6 | > 100 | 0.736 | > 100 |
| Cn1c(=O)c(Oc2cccc(F)c2)cc2cnc(NC3CCOCC3)nc21 | 8.11 | > 25 | > 25 | > 25 | 24.8 | > 25 | > 25 | > 25 | > 25 | > 25 | > 25 | > 25 | > 25 | > 25 | > 25 | > 25 | > 25 | > 25 | > 25 | > 25 |
| OCCCCC#Cc1ccccc1C#Cc1ccccc1F | 26.9 | 82.5 | 52 | > 100 | 15 | 33.1 | 17.4 | 31.6 | 26.1 | 46.9 | 20.2 | 43.1 | 25.3 | 62.4 | 23.6 | 52.3 | 17.5 | 36.8 | 16.1 | 42.6 |
| COc1ccc(Nc2ncccc2/C=C/C(=O)c2cc(OC)c(OC)c(OC)c2)cc1 | 3.19 | 11.7 | 1.6 | 3.16 | 2 | 5.31 | 1.23 | 2.48 | 1.4 | 2.87 | 1.72 | 3.79 | 1.77 | 4.08 | 1.39 | 2.68 | 2.14 | 6.33 | 1.67 | 4.03 |
